Where two headings read alike, the source gives them in different places.
Assays:
[1] = test system: P. falciparum stage V gametocytes; experiment: Gametocytocidal ATP bioluminescence assay (single point 5 μM and 1 μM, dose-response); format: cell-based, Plasmodium falciparum; conditions: for Ratio IC50 HepG2/IC50 P. falciparum: IC50 HepG2 divided by IC50 P. falciparum gametocytes
Experimental: Purified stage IV-V gametocytes were obtained as previously described [10]. Single point ATP bioluminescence assay and dose–response of positive hits was determined in accordance with the previously published protocol [10].

HepG2 cells = experiment: Cytotoxicity in HepG2 cells (intracellular ATP, ATPlite, 48 h); format: cell-based, human; conditions: HepG2 cells; IC50 per ratio column head; unit inferred
[2] = test system: P. falciparum asexual stages; conditions: asexual stages; TCAMS data; read-out: IC50 asexual; cited from earlier work
[3] = P. falciparum gametocytes, average, read-out: IC50 Pf Gametocytes average, IC50 (µM) average
[4] = sexual stages (gametocytes), dose-response, read-out: IC50 sexual

CCN(CC)CCOc1ccc(C(O)(C#CC(O)(c2ccccc2)c2ccc(OCCN(CC)CC)cc2)c2ccccc2)cc1 (centres unmarked) [TCMDC-137197]
Ratio IC50 HepG2/IC50 P. falciparum [1]: 5.34
IC50 [1, 3]: 0.69 µM
IC50 [1, 4]: 0.687 µM
IC50 (HepG2 cells): 3670 nM
IC50 [2]: 1310 nM

CCc1cc(COc2ccc(CNCCC(C)C)cc2I)c(OCc2ccccc2)c(COc2ccc(CNCCC(C)C)cc2I)c1 [TCMDC-137255]
Ratio IC50 HepG2/IC50 P. falciparum [1]: 5.71
IC50 [1, 3]: 1.02 µM
IC50 [1, 4]: 1.01 µM
IC50 (HepG2 cells): 5800 nM
IC50 [2]: 1110 nM

CN1CCCc2cc(NC(=O)C=Cc3ccc(-c4ccc(F)cc4F)o3)ccc2C1 [TCMDC-134051]
Ratio IC50 HepG2/IC50 P. falciparum [1]: <1
IC50 [1, 3]: > 10 µM
IC50 (HepG2 cells): 13400 nM
IC50 [2]: 783 nM

CCCCCOc1ccc(C(O)C(CCC(CN2CCCCCC2)C(O)c2ccc(OCCCCC)cc2)CN2CCCCCC2)cc1 (centres unmarked) [TCMDC-124174]
Ratio IC50 HepG2/IC50 P. falciparum [1]: 5.67
IC50 [1, 3]: 1.2 µM
IC50 (HepG2 cells): 6800 nM
IC50 [2]: 768 nM

CCOc1ccc2ccccc2c1CNCCCCCCNCc1c(OCC)ccc2ccccc12 [TCMDC-137791]
Ratio IC50 HepG2/IC50 P. falciparum [1]: 2.5
IC50 [1, 3]: 0.7 µM
IC50 (HepG2 cells): 1750 nM
IC50 [2]: 576 nM

COc1ccccc1CCNc1nc(C)cc(N[C@@H](Cc2ccccc2)C(=O)NCc2cccc(F)c2)n1 [TCMDC-134893]
Ratio IC50 HepG2/IC50 P. falciparum [1]: 1.19
IC50 [1, 3]: 5.3 µM
IC50 (HepG2 cells): 6300 nM
IC50 [2]: 867 nM

CCc1c(CCNCCCCCCNCCc2ccc(OC)c(OC)c2C)ccc(OC)c1OC [TCMDC-132051]
Ratio IC50 HepG2/IC50 P. falciparum [1]: 10
IC50 [1, 3]: 0.77 µM
IC50 (HepG2 cells): 7750 nM
IC50 [2]: 1570 nM

COc1ccc(CCNCCCCCCNCCc2ccc(Cl)cc2)c(Cl)c1OC [TCMDC-131272]
Ratio IC50 HepG2/IC50 P. falciparum [1]: 24
IC50 [1, 3]: 0.26 µM
IC50 [1, 4]: 0.257 µM
IC50 (HepG2 cells): 6200 nM
IC50 [2]: 825 nM

c1ccc2c(NCCCCCCCCCNc3ccnc4ccccc34)ccnc2c1 [TCMDC-137750]
Ratio IC50 HepG2/IC50 P. falciparum [1]: 2.83
IC50 [1, 3]: 1.03 µM
IC50 [1, 4]: 1.02 µM
IC50 (HepG2 cells): 2900 nM
IC50 [2]: 115 nM

CCCOc1ccc2ccccc2c1CNCCCCCCNCc1c(OCCC)ccc2ccccc12 [TCMDC-137966]
Ratio IC50 HepG2/IC50 P. falciparum [1]: 9
IC50 [1, 3]: 0.34 µM
IC50 (HepG2 cells): 3100 nM
IC50 [2]: 791 nM

COc1cc2ccccc2c(CNCCCCCCNCc2c(OC)c(OC)cc3ccccc23)c1OC [TCMDC-137795]
Ratio IC50 HepG2/IC50 P. falciparum [1]: 4.5
IC50 [1, 3]: 1.05 µM
IC50 [1, 4]: 1.04 µM
IC50 (HepG2 cells): 4700 nM
IC50 [2]: 1110 nM

CC(C)CCNCc1ccc(OCc2cccc(COc3ccc(CNCCC(C)C)cc3I)c2)c(I)c1 [TCMDC-137274]
Ratio IC50 HepG2/IC50 P. falciparum [1]: 14
IC50 [1, 3]: 0.37 µM
IC50 (HepG2 cells): 5300 nM
IC50 [2]: 453 nM

CCN(CC)CCOc1ccc(C(O)(C#CC(O)(c2ccc(C)cc2)c2ccc(OCCN(CC)CC)cc2)c2ccc(C)cc2)cc1 (centres unmarked) [TCMDC-137198]
Ratio IC50 HepG2/IC50 P. falciparum [1]: 12
IC50 [1, 3]: 0.14 µM
IC50 (HepG2 cells): 1620 nM
IC50 [2]: 903 nM

Cc1ccc2nc(C)cc(N/N=C/c3ccc([N+](=O)[O-])cc3)c2c1 [TCMDC-142070]
Ratio IC50 HepG2/IC50 P. falciparum [1]: 0.0202
IC50 [1, 3]: 9.41 µM
IC50 (HepG2 cells): 190 nM
IC50 [2]: 793 nM

COc1ccc2c(OC)c(CNCCCCCCNCc3ccc4cc(OC)ccc4c3OC)ccc2c1 [TCMDC-137953]
Ratio IC50 HepG2/IC50 P. falciparum [1]: 2
IC50 [1, 3]: 1.54 µM
IC50 (HepG2 cells): 3200 nM
IC50 [2]: 920 nM

CCN(CC)/C(=N/C(=N)Nc1ccc(Cl)c(Cl)c1)NCCCCCCN/C(=N\C(=N)Nc1ccc(Cl)c(Cl)c1)N(CC)CC [TCMDC-131808]
Ratio IC50 HepG2/IC50 P. falciparum [1]: >7
IC50 [1, 3]: 3.44 µM
IC50 [1, 4]: 3.44 µM
IC50 (HepG2 cells): > 25000 nM
IC50 [2]: 761 nM

CC(C)CNCc1ccc(-c2cccc(CN(C(=O)NC3CCCCC3)C3CCN(Cc4ccccc4)CC3)c2)cc1 [TCMDC-140628]
Ratio IC50 HepG2/IC50 P. falciparum [1]: 1.09
IC50 [1, 3]: 1.66 µM
IC50 (HepG2 cells): 1810 nM
IC50 [2]: 805 nM

CC(C)(C)c1ccc(-c2cc3c(ccc4nc(N)nc(N)c43)[nH]2)cc1 [TCMDC-137977]
Ratio IC50 HepG2/IC50 P. falciparum [1]: 6
IC50 [1, 3]: 0.55 µM
IC50 (HepG2 cells): 3260 nM
IC50 [2]: 113 nM

COc1cccc(CCc2c(CCNCCCCCCNCCc3ccccc3)ccc(OC)c2OC)c1 [TCMDC-132105]
Ratio IC50 HepG2/IC50 P. falciparum [1]: 44
IC50 [1, 3]: 0.18 µM
IC50 [1, 4]: 0.177 µM
IC50 (HepG2 cells): 7700 nM
IC50 [2]: 721 nM

COc1c(CCNCCCCNCCc2cc(Cl)c3ccccc3c2OC)cc(Cl)c2ccccc12 [TCMDC-137869]
Ratio IC50 HepG2/IC50 P. falciparum [1]: 40
IC50 [1, 3]: 0.08 µM
IC50 [1, 4]: 0.083 µM
IC50 (HepG2 cells): 3360 nM
IC50 [2]: 168 nM

CCCCCCCN1CC[C@@H](CCCc2ccnc3ccc(OCCC4CCNCC4)cc23)[C@@H](CC)C1 [TCMDC-139819]
Ratio IC50 HepG2/IC50 P. falciparum [1]: 11
IC50 [1, 3]: 0.42 µM
IC50 [1, 4]: 0.415 µM
IC50 (HepG2 cells): 4500 nM
IC50 [2]: 610 nM

c1ccc2c(NCCCCCCCCNc3ccnc4ccccc34)ccnc2c1 [TCMDC-137751]
Ratio IC50 HepG2/IC50 P. falciparum [1]: 3.46
IC50 [1, 3]: 1.08 µM
IC50 (HepG2 cells): 3740 nM
IC50 [2]: 155 nM

CCn1c(Sc2ccc([N+](=O)[O-])c(C#N)c2)nnc1-c1cccc(Cl)c1 [TCMDC-135234]
Ratio IC50 HepG2/IC50 P. falciparum [1]: >8
IC50 [1, 3]: 3.04 µM
IC50 (HepG2 cells): > 25000 nM
IC50 [2]: 873 nM

CC(CCCCC(=O)Nc1ccc(CC(C)NCCc2cccc(Cl)c2)cc1)NCCc1cccc(Cl)c1 (centres unmarked) [TCMDC-139799]
Ratio IC50 HepG2/IC50 P. falciparum [1]: 4
IC50 [1, 3]: 1.66 µM
IC50 [1, 4]: 1.66 µM
IC50 (HepG2 cells): 6590 nM
IC50 [2]: 1010 nM

Oc1c(CN2CCC(Cc3ccccc3)CC2)cc(Cl)c2cccnc12 [TCMDC-124594]
Ratio IC50 HepG2/IC50 P. falciparum [1]: 16
IC50 [1, 3]: 0.6 µM
IC50 (HepG2 cells): 9600 nM
IC50 [2]: 881 nM

FC(F)(F)COc1ccc(CNCCCCCCNCc2ccc(OCC(F)(F)F)c3ccccc23)c2ccccc12 [TCMDC-137853]
Ratio IC50 HepG2/IC50 P. falciparum [1]: 55
IC50 [1, 3]: 0.055 µM
IC50 (HepG2 cells): 3000 nM
IC50 [2]: 400 nM

CCn1c(-c2nonc2N)nc2c(-c3cccc(NC(=O)Nc4ccccc4OC)c3)ncc(OCCCN)c21 [TCMDC-136190]
Ratio IC50 HepG2/IC50 P. falciparum [1]: 14
IC50 [1, 3]: 0.44 µM
IC50 [1, 4]: 0.435 µM
IC50 (HepG2 cells): 5900 nM
IC50 [2]: 1000 nM

O=C(Nc1ccc(Cl)c(Cl)c1)Nc1ccccc1N1CCNCC1 [TCMDC-133727]
Ratio IC50 HepG2/IC50 P. falciparum [1]: 1.51
IC50 [1, 3]: 7.42 µM
IC50 (HepG2 cells): 11200 nM
IC50 [2]: 709 nM

CN1CCN(CCCN(Cc2cccc(-c3ccc(CNC4CCCC4)cc3)c2)C(=O)/C=C/c2ccccc2)CC1 [TCMDC-140544]
Ratio IC50 HepG2/IC50 P. falciparum [1]: 9
IC50 [1, 3]: 0.74 µM
IC50 [1, 4]: 0.735 µM
IC50 (HepG2 cells): 6390 nM
IC50 [2]: 746 nM

CC(C)(C)N1CCC(N(Cc2ccc(-c3ccc(C(F)(F)F)cc3)cc2)C(=O)Cn2c(CCc3cccc(F)c3F)cc(=O)c3cccnc32)CC1 [TCMDC-136011]
Ratio IC50 HepG2/IC50 P. falciparum [1]: 1.3
IC50 [1, 3]: 2.39 µM
IC50 (HepG2 cells): 3100 nM
IC50 [2]: 705 nM

COc1cccc(OC)c1CN1CCC(N(C)CCCCCCCCN2CCC(OC(=O)Nc3ccccc3-c3ccccc3)CC2)CC1 [TCMDC-134684]
Ratio IC50 HepG2/IC50 P. falciparum [1]: 3.29
IC50 [1, 3]: 1.04 µM
IC50 [1, 4]: 1.03 µM
IC50 (HepG2 cells): 3400 nM
IC50 [2]: 458 nM
